Test results reported in patent US20060263802A1 (priority 2003, published 2006).

Columns and labels:
Format in all cases: binding
[1] = system: human monoclonal antibody CRJA
[2] = system: human monoclonal antibody CR57
[3] = system: human monoclonal antibody CRJA; remark: listed apart in the source
[4] = system: human monoclonal antibody CRJB
[5] = system: human monoclonal antibody CR57; remark: listed apart in the source
[6] = system: human monoclonal antibody CRJB; remark: listed apart in the source

Sequence	Binding of CRJA (10 μg/ml) to looped/cyclic peptide (PEPSCAN-ELISA) [1]	Binding of CR57 to linear peptide (PEPSCAN-ELISA signal) [2]	Binding of CRJA to linear peptide (PEPSCAN-ELISA signal) [3]	Binding of CRJB (10 μg/ml) to looped/cyclic peptide (PEPSCAN-ELISA) [4]	Binding of CR57 (10 μg/ml) to looped/cyclic peptide (PEPSCAN-ELISA) [5]	Binding of CRJB to linear peptide (PEPSCAN-ELISA signal) [6]	Binding of CRJA (10 μg/ml) to looped/cyclic peptide (PEPSCAN-ELISA signal) [1]	Binding of CRJB (10 μg/ml) to looped/cyclic peptide (PEPSCAN-ELISA signal) [4]	Binding of CR57 (10 μg/ml) to looped/cyclic peptide (PEPSCAN-ELISA signal) [5]	binding of antibody CRJA to looped/cyclic peptide (PEPSCAN OD) [1]	Binding of CRJA to looped/cyclic peptide (PEPSCAN-ELISA signal) [1]	Binding of human monoclonal antibody CR57 to linear peptide (PEPSCAN-ELISA signal) [2]	Binding of human monoclonal antibody CRJA to linear peptide (PEPSCAN-ELISA signal) [3]	Binding of CRJB to looped/cyclic peptide (PEPSCAN-ELISA signal) [4]	Binding of CR57 to looped/cyclic peptide (PEPSCAN-ELISA signal) [5]	Binding of human monoclonal antibody CRJB to linear peptide (PEPSCAN-ELISA signal) [6]
KGSETCGFVDERGLY	71	90	100	72	111	97										
NGFTCTGVVTEAENY		69	98			101	82	76	92							
ECLDALESIMTTKSV	110	91	103	90	96	112										
VSSTYCSTNHDYTIW		78	80			107	88	61	89							
YCSTNHDYTIWMPEN		47	76			92	468	71	65	clearly bound						
RVGGRCHPHVNGVFF	117	86	93	104	107	143										
LLQQHMELLESSVIP	165	78	80	129	123	111										
RRLSHLRKLVPGFGK	96	92	85	88	111	143										
EHLVVEELVRKREEC	93	82	76	83	89	114										
IPEMQSSLLQQHMEL	54	89	60	83	66	128										
YTILDKLGPWSPIDI		48	93			114	91	73	75							
TNLSGFSYMELKVGY		43	102			106	85	107	39							
YMELKVGYILAIKMN		78	96			114	76	83	93							
EMQSSLLQQHMELLE	88	58	94	98	78	129										
HLPDVHNQVSGVDLG											87	104	96	93	119	150
DVHNQVSGVDLGLPN											99	117	124	113	120	133
PPDQLVNLHDFRSDE	97	107	118	83	101	120										
MAGDPRYEESLHNPY		64	71			116	71	62	65							
VAVSSTYCSTNHDYT		85	106			114	88	83	103							
KSVRTWNEILPSKGC	110	115	90	104	148	125										
TYCSTNHDYTIWMPE		96	87			107	97	93	104							
VKTTKESLVIISPSV		71	96			120	100	92	98							
